Results from patent US5175253A, “Binding peptides” (Washington University, priority 1991, dated 1992).
Read-outs that look alike come from different tables or passages of the source. Ends that are not written are not given here.

Tests used:
[1] = system: SEC receptor; experiment: Competition for binding to, and cross-linking of, the SEC receptor of HepG2 cells; design: species or system human
[2] = target: T1, substance P receptor (Rattus norvegicus, UniProt P14600); experiment: Competition for binding of substance P to a stable transfected cell line expressing the substance P receptor
T1 construct: expressed in transfected cells

[3] = Solubility of peptides in water and DMSO
Experimental: Some of the peptides used as candidate competitors, especially the pentapeptides, were dissolved in dimethylsulfoxide (DMSO) because they were not soluble in water. For all of these tests the same final concentration of DMSO was added to each cell monolayer.

[4] = system: SEC receptor; experiment: Competition for internalization of α1 AT-125I trypsin complexes by HepG2 cells; type: cell-based, human; conditions: 50-fold molar excess, 60 minutes at 37° C., Proteinase K-resistant radioactivity
Experimental: (§1) FIG. 2 presents two bar graphs which show competition for binding and internalization of α1 AT^125 I trypsin complexes by HepG2 cells. For panel a, HepG2 cells were incubated for 2 hours at 4° C. in binding buffer, α1 AT-^125 I trypsin complexes in subsaturating concentrations (50 nM) and competing unlabelled proteins or synthetic peptides in 50-fold molar excess. The cells were then rinsed, homogenized and cell-associated radioactivity determined. Binding in the absence of competitor was arbitrarily designated 0% inhibition of binding on the vertical axis. Results represent mean and 1 standard deviation for 3 separate determinations of each competitor. For panel b, HepG2 cells were incubated for 1 hour at 37° C. in binding buffer, α1 AT^125 I trypsin complexes in subsaturating concentrations (50 nM) and competing unlabelled proteins or synthetic peptides in 50-fold molar excess. […] Internalization in the absence of competitor was arbitrarily designated 0% inhibition of internalization on the vertical axis. Results represent mean and 1 standard deviation for 3 separate determinations of each putative competitor. Partial amino acid sequences for α1 AT and peptides are shown at the top of each panel.
The cells were then rinsed extensively and incubated with Proteinase K for an additional 60 minutes at 4° C. to remove any surface bound radiolabelled ligand. Internalization was defined as radioactivity associated with the resulting cell pellet. […] Higher degrees of inhibition were achieved by higher concentrations of competitors in other tests.

[5] = system: SEC receptor; experiment: Competition for binding of 125I peptide 105Y to HepG2 cells; design: species or system human; conditions: 125I peptide 105Y 50 nM, 2 hrs at 4° C., unlabelled competitor
Experimental: For each test HepG2 cells were incubated for 2 hrs at 4° C. in binding buffer, ^125 I peptide 105Y at saturating concentrations (50 nM) and competing unlabelled synthetic peptides in the concentrations specified on the horizontal axis. […] Binding in the absence of competitor was arbitrarily designated 100% binding on the vertical axis. Each data point and set of error bars represent mean and 1 standard deviation for four separate determinations. Partial amino acid sequences of α1 AT and synthetic peptides are shown at the top of each of panels a, b and c.
Each bar represents mean and 1 standard deviation for 3 separate determinations.

[6] = system: SEC receptor; experiment: Competition for binding of α1 AT-125I trypsin complexes to HepG2 cells; design: species or system human; conditions: complexes 50 nM, competitor in 50-fold molar excess, 2 hrs at 4° C.
Experimental: as §1, with “panel. […]” for “panel.”

[7] = system: SEC receptor; experiment: Direct binding of 125I peptide 105C to HepG2 cells; design: species or system human
Experimental: (§2) Left panel a: cells were incubated 2 hours at 4° C. with several different concentrations of ^125 I peptide 105C in the absence (open circles, total ligand binding) or the presence of unlabelled peptide 105C in 200-fold molar excess (filled circles, nonspecific binding). The difference was designated specific binding (open triangles). The cells were then rinsed and cell-associated radioactivity was determined by gamma counting of cell homogenates. Right panel b: cells were incubated for 2 hours at 4° C. with ^125 I peptide 105C in subsaturating concentrations (50 nM) in the absence or presence of unlabelled competing proteins or peptides as indicated on the horizontal axis. The molar excess in fold of each competitor is indicated in parentheses. Binding in the absence of competitor was arbitrarily designated 0% inhibition of binding on the vertical axis.
(§3) The direct binding of peptide 105C to HepG2 cells was also examined. This peptide was radioiodinated by the chloramine T method and purified by reverse phase C:18 chromatography. Separate monolayers of cells were incubated with ^125 I-105C in several different concentrations either in the absence or presence of unlabelled 105C in 200-fold molar excess (FIG. 3, left panel a). […]

[8] = system: SEC receptor; experiment: Competition for binding of 125I peptide 105C to HepG2 cells; design: species or system human; conditions: 125I peptide 105C 50 nM, 2 hours at 4° C.
Experimental: as §2, §3

[9] = system: synthesis of α1 AT; conditions: cited from earlier work
[10] = target: SEC receptor; conditions: cited from earlier work
[11] = system: SEC receptor; conditions: unlabelled competitor; cited from earlier work

T1 sequence (P14600 whole entry): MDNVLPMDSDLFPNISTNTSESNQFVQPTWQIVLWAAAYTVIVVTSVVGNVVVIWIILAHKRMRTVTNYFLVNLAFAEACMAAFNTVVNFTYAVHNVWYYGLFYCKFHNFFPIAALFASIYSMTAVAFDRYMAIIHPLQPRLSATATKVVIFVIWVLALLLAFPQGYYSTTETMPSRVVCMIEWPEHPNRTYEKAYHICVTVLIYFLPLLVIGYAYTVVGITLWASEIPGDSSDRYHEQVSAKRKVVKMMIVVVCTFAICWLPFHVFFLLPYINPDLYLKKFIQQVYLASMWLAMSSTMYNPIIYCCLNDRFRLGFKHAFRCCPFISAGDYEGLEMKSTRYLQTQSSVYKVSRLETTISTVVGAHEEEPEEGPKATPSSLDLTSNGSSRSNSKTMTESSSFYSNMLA

With CSCC[C@H](NC(=O)[C@H](CC(C)C)NC(=O)[C@H](Cc1cnc[nH]1)NC(=O)CNC(=O)[C@@H](NC(=O)[C@H](C)NC(=O)[C@H](Cc1c[nH]c2ccccc12)NC(=O)[C@H](CCC(N)=O)NC(=O)[C@H](CC(N)=O)NC(=O)CNC(=O)[C@H](CC(C)C)NC(=O)[C@H](CCCN=C(N)N)NC(=O)[C@H](CCC(N)=O)NC(=O)[C@@H]1CCC(=O)N1)C(C)C)C(N)=O [bombesin] the “competition for binding to, and cross-linking of, the SEC receptor” value [1] was “compete for binding to, and cross-linking of, the SEC receptor” and the “competition for binding of substance P” value [2] was “do not compete for binding of substance P”.

With “EVKFNKP [peptide 105B, Glu-Val-Lys-Phe-Asn-Lys-Pro]” the solubility [3] was “soluble in both water and DMSO”.

For “Phe-Val-Tyr-Leu-Ile (FVYLI) [peptide 105C]”, the “inhibition of internalization of α1 AT-125I trypsin complexes” value [4] was “inhibits internalization as effectively as peptide 105Y and unlabelled α1 AT-trypsin complexes”, the “competition for binding of 125I peptide 105Y to HepG2 cells” value (“competition for binding … to HepG2 cells” below) [5] was “compete as effectively as peptide 105Y” and the “competition for binding … to HepG2 cells” value ([5]; listed as FVYLI) was “no difference in inhibition of binding”. For the same compound, the “inhibition of binding of α1 AT-125I trypsin complexes to HepG2 cells” value [6] was “inhibits binding”, the “direct binding to HepG2 cells” value ([7]; 125I-105C with or without unlabelled 105C in 200-fold molar excess) was “specific and saturable binding” and the Kd ([7]; 125I-105C, HepG2 cells, 2 hours at 4° C., read-out: point of half-maximal saturation) was roughly 40 nM.

In the case of “SIPPEVKFNKPFVYLI [peptide 105Y, carboxy-terminal fragment, amino acids 359-374, of α1 AT]”, the “inhibition of internalization of α1 AT-125I trypsin complexes” value [4] is given as “inhibits internalization”, the “inhibition of binding of 125I 105C” value [8] is given as “inhibited” and the “effect on synthesis of α1 AT” value [9] is given as “mediated an increase in synthesis of α1 AT”. The “competition for binding … to HepG2 cells” value [5] was “compete”, the Kd ([10]; 125I peptide 105Y, HepG2 cells and human blood monocytes, read-out: K2) was 40 nM and the “direct binding of 125I peptide 105Y” value ([10]; HepG2 cells and human blood monocytes) was “bound specifically and saturably”. For the same compound, the “blocking of binding of 125I α1 AT-elastase complexes” value [11] was “blocked binding”, the “inhibition of binding of α1 AT-125I trypsin complexes to HepG2 cells” value [6] was “inhibits binding” and the “competition for binding of substance P” value [2] was “do not compete for binding of substance P”.

In the case of amyloid-β-protein, the “competition for binding to, and cross-linking of, the SEC receptor” value [1] is reported as “compete for binding to, and cross-linking of, the SEC receptor” and the “competition for binding of substance P” value [2] is reported as “do not compete for binding of substance P”.

With “native α1 AT: purified human plasma α1-antitrypsin, 55 kDa serum glycoprotein” the “inhibition of internalization of α1 AT-125I trypsin complexes” value [4] was “no significant inhibition of internalization”.

In the case of “α1 ACT-cathepsin G complexes: serpin-enzyme complex”, the “blocking of binding of 125I peptide 105Y” value [10] is listed as “blocked”.

For “α1 AT-elastase complexes: complex of α1 AT with neutrophil elastase”, the “blocking of binding of 125I peptide 105Y” value [10] is given as “blocked”.
